Values of other authors in patent US20110311589A1 (priority 2008, published 2011).

Test system: helminthiasis
Conditions: in vivo

Question: Which “Dosage level at which particularly effective as anthelmintic” value does the source give for `c1ccc([C@H]2CN3CCSC3=N2)cc1` [Levamisole] here?
Answer: approximately 7.5 mg per kg of animal body weight
